# “And” between values parts separate entries of the source, which are not always exact repeats. Equal values may be shown once.
# Legend:
# [1] = target: T1, Na+, K+-ATPase from pig kidney microsomal membranes (Sus scrofa, UniProt P05024); assay: Na+,K+-ATPase inhibition assay (residual ATP hydrolysis after 2 h preincubation with inhibitor); assay type: biochemical; details: for KC (equilibrium constant E•I ↔ E•I*): KC = Fhigh/Flow; for Ki: Ki (dissociation constant of initial binding E + I ↔ E•I), derived from KDiss,high and KC; for percentage of high-affinity component (Fhigh): magnitude of high-affinity component of the inhibition curve; for percentage of low-affinity component (Flow): magnitude of low-affinity component of the inhibition curve; for ratio of KDiss,high values α-isomer:β-isomer: stereoselectivity, α:β of the same pair;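 as to all read-outs here: enzyme preincubated with inhibitor in 40 mM Tris pH 7.0 containing 3 mM MgCl2 and 3 mM Na-phosphate, remaining activity measured as phosphate released from ATP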
# T1 construct: Na^+, K^+-ATPase from pig kidney microsomal membranes was purified by differential centrifugation; from tissue; host or cells: pig kidney microsomal membranes
# Protocol: The residual rates of ATP hydrolysis were plotted vs. different drug concentrations and analysed by fitting hyperbolic functions corresponding to a dominant high-affinity component and (where appropriate) a second smaller low-affinity component, and the resulting kinetic parameters were shown in Table 1.
# The solid lines represent hyperbolic fits to the inactivation measured after preincubation of the inhibitors with NKA for 2 hours at 37 °C in the presence of Mg^2+ and Pi.
# Na^+, K^+-ATPase from pig kidney microsomal membranes was purified by differential centrifugation[27]. […] The inhibitory effects of bufadienolides on NKA were determined essentially as previously reported[9][10].
# Preparation and activity assay of Na+,K+-ATPase
# Na+,K+-ATPase from pig kidney microsomal membranes was purified by
# differential centrifugation.27 The specific Na,K-ATPase activity was determined
# from the difference in the amount of phosphate released in the absence and
# 4 mM MgCl2 and 3 mM ATP. The specific activity of the enzyme preparation
# was approximately 30 µmol ATP hydrolysed/mg protein per min at 37°C.27 The
# phosphorylation capacity is about 2.9 nmol/mg protein and is equal to the
# high-affinity ouabain binding capacity.10, 27
# Details of the kinetic analysis of inhibition
# The inhibitory effects of bufadienolides on NKA were determined
# essentially as previously reported9, 10. In brief, NKA is preincubated at 37 °C for
# 2 hours in the presence of 3 mM MgCl2, 3 mM Na-phosphate and 40 mM Tris
# (pH 7.0) with increasing concentrations of inhibitor. The residual NKA activity is
# subsequently determined by 40-fold dilution into a standard ATPase assay
# For each inhibitor concentration the
# residual activity was determined in two or three independent experiments and
# the error bars in Fig. 4 indicate the standard deviation.
# (2) Detailed explanation of the kinetic analysis of inhibition
# The interaction between bufalins (I) and Na+,K+-ATPase (E) is interpreted as
# relatively slow equilibrium.
# The binding of I to E is described by a dissociation constant
# The conformational change
# is described by an equilibrium constant
# After equilibrium is attained by preincubation of the enzyme and inhibitor,
# the residual Na+,K+-ATPase activity is measured by a 40-fold dilution into the
# assay medium for 2 min. It is assumed that the dilution leads to an immediate
# dissociation of E•I into E + I, and it is also assumed that the conformational
# change E•I ↔ E•I* is slow on the 2-minutes time scale of the functional assay.
# The observed decrease in the Na+,K+-ATPase activity is thus an estimate
# of the amount of E•I* present at a given inhibitor concentration in the
# preincubation media, and the observed concentration dependence of
# inactivation is related to Ki as well as KC.
# Na+,K+-ATPase membranes = assay: 13C CP-MAS SSNMR of NKA membranes with labelled inhibitor (binding-site saturation estimated from Table 1); design: species or system pig; details: NKA 13 nmol with 16 nmol inhibitor
# From the text: We next considered whether the enhanced activity of 5β arises from the additional hydrogen-bonding capacity of the glucose moiety. […] Here we used ^13C cross-polarization magic-angle spinning (CP-MAS) SSNMR to report on the interactions of the glycosidic groups of 5α and 5β with the binding site. […] In Fig. 5 panels C and D are shown ^13C CP-MAS SSNMR spectra of NKA (13 nmol) in the absence of inhibitor (red) and with 5β or 5α (each 16 nmol) (black), respectively. From Table 1 it is estimated that there is 99.5% saturation of the binding site by 5β and about 75% saturation by 5α. For the complex with 5β (Fig. 5C), signals from the inhibitor can clearly be observed around 60–90 ppm; […].
# One dimensional proton-decoupled ^13C CP-MAS NMR experiments were performed at −25 °C using a Bruker Avance 400 MHz spectrometer at a magnetic field of 9.3 T equipped with a 4 mm HXY probe and (for 2D measurements on membranes) on a Bruker Avance III 700 MHz instrument with a 3.2 mm HXY probe operating in double-resonance mode. Samples were spun at a MAS rate of 5 kHz in a 4 mm zirconium rotor. […] Two-dimensional DARR spectra of solid inhibitors were recorded at room temperature with a 2-ms contact time at a field of 63 kHz, 83 kHz SPINAL-64 decoupling, […] and a 8-kHz proton field matched to the spinning frequency during a 10-ms mixing time. […]
# [2] = KDiss,high, high-affinity component of inhibition curve, preincubation 2 h, 37 °C, Mg2+ and Pi
# [3] = KDiss,low, low-affinity component of inhibition curve, reflects ATPase assay medium
Compound,KC (equilibrium constant E•I ↔ E•I*) [1],"Kd [1, 2]","Kd [1, 3]",Ki [1],percentage of high-affinity component (Fhigh) [1],percentage of low-affinity component (Flow) [1],"ratio of KDiss,high values α-isomer:β-isomer [1]","Kd ([1]; KDiss,low, low-affinity component, value in mM)","saturation of the binding site (Na+,K+-ATPase membranes)"
CON[C@@H]1CC[C@@]2(C)[C@H](CC[C@@H]3[C@@H]2CC[C@]2(C)[C@@H](c4ccc(=O)oc4)CC[C@]32O)C1 [Compound 4α],9.0,7.26 ± 0.16 µM,524 ± 153 µM,65 µM,90%,10%,145,–,–
CON[C@H]1CC[C@@]2(C)[C@H](CC[C@@H]3[C@@H]2CC[C@]2(C)[C@@H](c4ccc(=O)oc4)CC[C@]32O)C1 [Compound 4β],6.14,< 0.05 µM,–,~0.31 µM and 0.31 µM,–,–,–,> 1000 µM,–
CON([C@@H]1CC[C@@]2(C)[C@H](CC[C@@H]3[C@@H]2CC[C@]2(C)[C@@H](c4ccc(=O)oc4)CC[C@]32O)C1)[C@@H]1O[C@H](CO)[C@@H](O)[C@H](O)[C@H]1O [Compound 5α],49,39.2 ± 1.5 µM,–,1920 µM,98%,–,461,–,about 75%
CON(C1CCC2(C)C(CCC3C2CCC2(C)C(c4ccc(=O)oc4)CCC32O)C1)C1OC(CO)C(O)C(O)C1O (stereo not drawn) [Compound 5β],3.17,0.085 ± 0.01 µM,67.6 ± 38 µM,~0.26 µM and 0.26 µM,76%,–,–,–,99.5%
C[C@]12CC[C@](O)(C(F)(F)F)C[C@H]1CC[C@@H]1[C@@H]2CC[C@]2(C)[C@@H](c3ccc(=O)oc3)CC[C@]12O [Compound 6α],1.86,22.7 ± 1.56 µM,242 ± 35 µM,42.2 µM,65%,33%,6.4,–,–
C[C@]12CC[C@@](O)(C(F)(F)F)C[C@H]1CC[C@@H]1[C@@H]2CC[C@]2(C)[C@@H](c3ccc(=O)oc3)CC[C@]12O [Compound 6β],1.78,3.56 ± 0.6 µM,93.5 ± 67 µM,6.3 µM,64%,32%,–,–,–
